Laboratory results as given in ChEMBL document CHEMBL1152838, “QSAR study of antioxidant activity of wine polyphenols” (Eur J Med Chem, 2009).
pIC50: −log10 of the molar value.

Legend:
[1] = ABTS radical scavenging activity assessed as Trolox equivalent antioxidant capacity; format: physicochemical
Liver microsomes = experiment: Antioxidant activity in Wistar rat liver microsomes assessed as inhibition of lipid peroxidation by TBA assay; format: functional, Microsome

SMILES | Activity [1] | pIC50 (Liver microsomes)
Oc1cc(O)c2c(c1)OC(c1ccc(O)c(O)c1)C(O)C2 (stereo not drawn) [CATECHIN] |  | 4.29
O=C(O)/C=C/c1ccc(O)c(O)c1 [CAFFEIC ACID] | 1.01 mmol/L | 
O=c1cc(-c2ccc(O)cc2)oc2cc(O)cc(O)c12 [APIGENIN] |  | 4.00
O=C(O)c1cc(O)c(O)c(O)c1 [GALLIC ACID] | 1.98 mmol/L | 
O=C1C[C@@H](c2ccc(O)cc2)Oc2cc(O)cc(O)c21 [NARINGENIN] |  | 4.00
Oc1cc(O)c2c(c1)O[C@H](c1ccc(O)c(O)c1)[C@H](O)C2 [(-)-EPICATECHIN] | 0.99 mmol/L | 4.60
O=c1c(O)c(-c2ccc(O)c(O)c2)oc2cc(O)cc(O)c12 [QUERCETIN] | 1.14 mmol/L | 5.07

Continued, values first:

Activity [1] | pIC50 (Liver microsomes) | SMILES
0.4 mmol/L |  | Oc1ccc(/C=C/c2cc(O)cc(O)c2)cc1 [RESVERATROL]
0.23 mmol/L |  | COc1cc(/C=C/C(=O)O)ccc1O [FERULATE]
0.57 mmol/L |  | Oc1cc(O)c2c(c1)O[C@H](c1ccc(O)c(O)c1)[C@@H](O)C2 [CATECHIN]
0.83 mmol/L | 4.64 | O=c1c(O)c(-c2ccc(O)cc2O)oc2cc(O)cc(O)c12 [MORIN]
1.02 mmol/L | 4.98 | O=c1c(O)c(-c2cc(O)c(O)c(O)c2)oc2cc(O)cc(O)c12 [MYRICETIN]
0.79 mmol/L | 4.72 | O=c1c(O)c(-c2ccc(O)cc2)oc2cc(O)cc(O)c12 [KAEMPFEROL]
